Source: PubChem BioAssay (NCI)
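Exposure lasted 48 hours, with cells grown in 96-well plates and compounds tested at five concentrations. GI50 marks 50% less growth. TGI: total growth inhibition.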

How the values were obtained:
Test in all cases: NCI tumour cell line growth inhibition, 48 h
786-0 renal = tested on: 786-0 renal
A549 NSCLC = tested on: A549 NSCLC
ACHN renal = tested on: ACHN renal
BT-549 breast = tested on: BT-549 breast
CAKI-1 renal = tested on: CAKI-1 renal
COLO 205 colon = tested on: COLO 205 colon
DU-145 prostate = tested on: DU-145 prostate
EKVX NSCLC = tested on: EKVX NSCLC
HCT-116 colon = tested on: HCT-116 colon
HCT-15 colon = tested on: HCT-15 colon
HL-60(TB) leukemia = tested on: HL-60(TB) leukemia
HOP-62 NSCLC = tested on: HOP-62 NSCLC
HOP-92 NSCLC = tested on: HOP-92 NSCLC
HS 578T breast = tested on: HS 578T breast
HT29 colon = tested on: HT29 colon
IGROV1 ovarian = tested on: IGROV1 ovarian
K-562 leukemia = tested on: K-562 leukemia
KM12 colon = tested on: KM12 colon
LOX IMVI melanoma = tested on: LOX IMVI melanoma
M14 melanoma = tested on: M14 melanoma
MCF7 breast = tested on: MCF7 breast
MDA-MB-231 breast = tested on: MDA-MB-231 breast
MDA-MB-435 = tested on: MDA-MB-435
NCI-H226 lung = tested on: NCI-H226 lung
NCI-H23 lung = tested on: NCI-H23 lung
NCI-H460 lung = tested on: NCI-H460 lung
NCI-H522 lung = tested on: NCI-H522 lung
NCI/ADR-RES ovarian = tested on: NCI/ADR-RES ovarian
OVCAR-3 ovarian = tested on: OVCAR-3 ovarian
OVCAR-4 ovarian = tested on: OVCAR-4 ovarian
OVCAR-5 ovarian = tested on: OVCAR-5 ovarian
OVCAR-8 ovarian = tested on: OVCAR-8 ovarian
PC-3 prostate = tested on: PC-3 prostate
RXF 393 renal = tested on: RXF 393 renal
SF-268 CNS = tested on: SF-268 CNS
SF-295 CNS = tested on: SF-295 CNS
SF-539 CNS = tested on: SF-539 CNS
SK-MEL-2 melanoma = tested on: SK-MEL-2 melanoma
SK-MEL-28 melanoma = tested on: SK-MEL-28 melanoma
SK-MEL-5 melanoma = tested on: SK-MEL-5 melanoma
SK-OV-3 ovarian = tested on: SK-OV-3 ovarian
SN12C renal = tested on: SN12C renal
SNB-19 CNS = tested on: SNB-19 CNS
SNB-75 CNS = tested on: SNB-75 CNS
SW-620 colon = tested on: SW-620 colon
T-47D breast = tested on: T-47D breast
TK-10 renal = tested on: TK-10 renal
U251 CNS = tested on: U251 CNS
UACC-257 melanoma = tested on: UACC-257 melanoma
UACC-62 melanoma = tested on: UACC-62 melanoma
UO-31 renal = tested on: UO-31 renal

SMILES: COc1cc2c3c(n(CCCNCCNCCCN)c(=O)c2cc1OC)-c1cc2c(cc1C3=O)OCO2
- GI50 (786-0 renal): 3.24 µM
- TGI (786-0 renal): 14.5 µM
- GI50 (A549 NSCLC): 10.8 µM
- TGI (A549 NSCLC): > 100 µM
- GI50 (ACHN renal): 0.18 µM
- TGI (ACHN renal): 2.6 µM
- GI50 (BT-549 breast): 15.1 µM
- TGI (BT-549 breast): 35.2 µM
- GI50 (CAKI-1 renal): 5.68 µM
- TGI (CAKI-1 renal): 24.1 µM
- GI50 (COLO 205 colon): 3.57 µM
- TGI (COLO 205 colon): 17.9 µM
- GI50 (DU-145 prostate): 4.6 µM
- TGI (DU-145 prostate): 17 µM
- GI50 (EKVX NSCLC): 29.8 µM
- TGI (EKVX NSCLC): 69.9 µM
- GI50 (HCT-116 colon): 1.29 µM
- TGI (HCT-116 colon): 2.56 µM
- GI50 (HCT-15 colon): 2.24 µM
- TGI (HCT-15 colon): 20 µM
- GI50 (HL-60(TB) leukemia): 6.11 µM
- TGI (HL-60(TB) leukemia): 51.7 µM
- GI50 (HOP-62 NSCLC): 2.88 µM
- TGI (HOP-62 NSCLC): 15.6 µM
- GI50 (HOP-92 NSCLC): 21 µM
- TGI (HOP-92 NSCLC): 72.2 µM
- GI50 (HS 578T breast): 1.38 µM
- TGI (HS 578T breast): 7.93 µM
- GI50 (HT29 colon): 2.03 µM
- TGI (HT29 colon): 10.2 µM
- GI50 (IGROV1 ovarian): 1.04 µM
- TGI (IGROV1 ovarian): 7.09 µM
- GI50 (K-562 leukemia): 3.43 µM
- TGI (K-562 leukemia): > 100 µM
- GI50 (KM12 colon): 2.61 µM
- TGI (KM12 colon): 14.5 µM
- GI50 (LOX IMVI melanoma): 1.08 µM
- TGI (LOX IMVI melanoma): 3.75 µM
- GI50 (M14 melanoma): 3 µM
- TGI (M14 melanoma): 12.5 µM
- GI50 (MCF7 breast): 2.14 µM
- TGI (MCF7 breast): > 100 µM
- GI50 (MDA-MB-231 breast): 1.19 µM
- TGI (MDA-MB-231 breast): 3.59 µM
- GI50 (MDA-MB-435): 3.45 µM
- TGI (MDA-MB-435): 15.6 µM
- GI50 (NCI-H226 lung): 2.06 µM
- TGI (NCI-H226 lung): 7.06 µM
- GI50 (NCI-H23 lung): 2.73 µM
- TGI (NCI-H23 lung): 10.9 µM
- GI50 (NCI-H460 lung): 6.41 µM
- TGI (NCI-H460 lung): > 100 µM
- GI50 (NCI-H522 lung): 0.575 µM
- TGI (NCI-H522 lung): 2.86 µM
- GI50 (NCI/ADR-RES ovarian): 21.1 µM
- TGI (NCI/ADR-RES ovarian): 94.6 µM
- GI50 (OVCAR-3 ovarian): 2.22 µM
- TGI (OVCAR-3 ovarian): 7.63 µM
- GI50 (OVCAR-4 ovarian): 4.64 µM
- TGI (OVCAR-4 ovarian): 19.9 µM
- GI50 (OVCAR-5 ovarian): 3.82 µM
- TGI (OVCAR-5 ovarian): 21.4 µM
- GI50 (OVCAR-8 ovarian): 2.39 µM
- TGI (OVCAR-8 ovarian): 6.45 µM
- GI50 (PC-3 prostate): 13.2 µM
- TGI (PC-3 prostate): 56.3 µM
- GI50 (RXF 393 renal): 13 µM
- TGI (RXF 393 renal): 93.1 µM
- GI50 (SF-268 CNS): 1.99 µM
- TGI (SF-268 CNS): 11.4 µM
- GI50 (SF-295 CNS): 2.79 µM
- TGI (SF-295 CNS): 17.4 µM
- GI50 (SF-539 CNS): 8.55 µM
- TGI (SF-539 CNS): 23.6 µM
- GI50 (SK-MEL-2 melanoma): 2.59 µM
- TGI (SK-MEL-2 melanoma): 10 µM
- GI50 (SK-MEL-28 melanoma): 6.6 µM
- TGI (SK-MEL-28 melanoma): 20.1 µM
- GI50 (SK-MEL-5 melanoma): 6.41 µM
- TGI (SK-MEL-5 melanoma): 20.3 µM
- GI50 (SK-OV-3 ovarian): 8.08 µM
- TGI (SK-OV-3 ovarian): > 100 µM
- GI50 (SN12C renal): 1.66 µM
- TGI (SN12C renal): 7.17 µM
- GI50 (SNB-19 CNS): 5.73 µM
- TGI (SNB-19 CNS): 31.2 µM
- GI50 (SNB-75 CNS): 10.3 µM
- TGI (SNB-75 CNS): 26.7 µM
- GI50 (SW-620 colon): 2.03 µM
- TGI (SW-620 colon): 10.7 µM
- GI50 (T-47D breast): 2.72 µM
- TGI (T-47D breast): 17.3 µM
- GI50 (TK-10 renal): 7.92 µM
- TGI (TK-10 renal): 27 µM
- GI50 (U251 CNS): 0.0177 µM
- TGI (U251 CNS): 0.422 µM
- GI50 (UACC-257 melanoma): 9.51 µM
- TGI (UACC-257 melanoma): 30.9 µM
- GI50 (UACC-62 melanoma): 1.87 µM
- TGI (UACC-62 melanoma): 8.18 µM
- GI50 (UO-31 renal): 5.67 µM
- TGI (UO-31 renal): 23.6 µM
